Measured values published in ChEMBL document CHEMBL5113491, “Discovery of N-benzylarylamide derivatives as novel tubulin polymerization inhibitors capable of activating the Hippo pathway” (Eur J Med Chem, 2022).
pIC50: −log10 of the molar value. The source made the active and inactive calls. No cut-off for these calls is given here.

Legend:
HCT-116 = assay: Antiproliferative activity against human HCT-116 cells assessed as inhibition of cell growth measured after 48 hrs by MTT assay; assay type: functional, cell-based; settings: HCT-116, 48 h
DU-145 = assay: Antiproliferative activity against human DU-145 cells assessed as inhibition of cell growth measured after 48 hrs by MTT assay; assay type: functional, cell-based; settings: DU-145, 48 h
PC-3 = assay: Antiproliferative activity against human PC-3 cells assessed as inhibition of cell growth measured after 48 hrs by MTT assay; assay type: functional, cell-based; settings: PC-3, 48 h
A549 = assay: Antiproliferative activity against human A549 cells assessed as inhibition of cell growth measured after 48 hrs by MTT assay; assay type: functional, cell-based; settings: A549, 48 h
MCF7 = assay: Antiproliferative activity against human MCF7 cells assessed as inhibition of cell growth measured after 48 hrs by MTT assay; assay type: functional, cell-based; settings: MCF7, 48 h
TE-1 = assay: Antiproliferative activity against human TE-1 cells assessed as inhibition of cell growth measured after 48 hrs by MTT assay; assay type: functional, cell-based; settings: TE-1, 48 h
SMMC-7721 = assay: Antiproliferative activity against human SMMC-7721 cells assessed as inhibition of cell growth measured after 48 hrs by MTT assay; assay type: functional, cell-based; settings: SMMC-7721, 48 h
MGC-803 [1] = assay: Antiproliferative activity against human MGC-803 cells assessed as inhibition of cell growth measured upto 72 hrs by MTT assay; assay type: functional, cell-based; settings: dose 15-45 µmol/L, DDE = dose-dependent effect
SGC-7901 [2] = assay: Antiproliferative activity against human SGC-7901 cells assessed as inhibition of cell growth measured upto 72 hrs by MTT assay; assay type: functional, cell-based; settings: dose 15-45 µmol/L, DDE = dose-dependent effect
GES1 = assay: Cytotoxicity against human GES1 cells assessed as reduction in cell viability at 5 to 40 nM measured after 48 hrs by MTT assay; assay type: toxicity, cell-based; settings: ges1, 48 h, 0.04 µM, dose 5-40 nM
[3] = Cytotoxicity against human GES1 cells assessed as reduction in cell viability measured after 48 hrs by MTT assay; assay type: toxicity, cell-based
[4] = Cytotoxicity against human HUVEC cells assessed as reduction in cell viability measured after 48 hrs by MTT assay; assay type: toxicity, cell-based
[5] = (§1) Inhibition of porcine brain microtubule polymerization measured after 1 hrs by fluorescence based assay; parameters: species or system Sus scrofa
Sus scrofa = organism: Sus scrofa; assay: as §1; settings: DDE = dose-dependent effect
[6] = target: T1, Tubulin beta (Homo sapiens) (UniProt P68371+Q9H4B7+Q13509+P04350+Q3ZCM7+P07437+Q13885+Q9BVA1+Q9BUF5+A6NNZ2); assay: Binding affinity to beta-tubulin colchicine binding site in human MGC-803 cells assessed as inhibition of EBI-beta-tubulin adduct band formation preincubated for 2 hrs followed by EBI addition and measured after 2 hrs by EBI competition based Western blotting analysis; assay type: cell-based; settings: dose 1-10 µM, time 4.0 hrs, DDE = dose-dependent effect
[7] = target: T1, Tubulin beta (Homo sapiens); assay: Binding affinity to beta-tubulin colchicine binding site in human SGC-7901 cells assessed as inhibition of EBI-beta-tubulin adduct band formation preincubated for 2 hrs followed by EBI addition and measured after 2 hrs by EBI competition based Western blotting analysis; assay type: cell-based; settings: dose 1-10 µM, time 4.0 hrs, DDE = dose-dependent effect
Tubulin (Homo sapiens) [8] = target: T2, Tubulin (Homo sapiens) (UniProt P68371+Q9H4B7+P0DPH7+P68366+Q13509+Q71U36+P04350+Q3ZCM7+P07437+P68363+Q9BQE3+Q6PEY2+Q13885+Q9BVA1+Q9BUF5); assay: Induction of microtubule disruption in human MGC-803 cells measured after 48 hrs by DAPI staining based immunofluorescence assay; assay type: cell-based; settings: dose 15-45 nmol/L, DDE = dose-dependent effect
Tubulin (Homo sapiens) [9] = target: T2, Tubulin (Homo sapiens); assay: Induction of microtubule disruption in human SGC-7901 cells measured after 48 hrs by DAPI staining based immunofluorescence assay; assay type: cell-based; settings: dose 15-45 nmol/L, DDE = dose-dependent effect
MGC-803 [10] = assay: Activation of MST in human MGC-803 cells assessed as increase in MST phosphorylation measured after 48 hrs by Western blot analysis; assay type: cell-based; settings: filed as activator, dose 15-45 nmol/L, DDE = dose-dependent effect
SGC-7901 [11] = assay: Activation of LATS in human SGC-7901 cells assessed as increase in LATS phosphorylation measured after 48 hrs by Western blot analysis; assay type: cell-based; settings: filed as activator, dose 15-45 nmol/L, DDE = dose-dependent effect
SGC-7901 [12] = assay: Downregulation of YAP protein expression in human SGC-7901 cells measured after 48 hrs by Western blot analysis; assay type: functional, cell-based; settings: dose 15-45 nmol/L, DDE = dose-dependent effect
MGC-803 [13] = assay: Downregulation of Axl protein expression in human MGC-803 cells at 15 to 45 nmol/L measured after 48 hrs by Western blot analysis; assay type: functional, cell-based; settings: dose 15-45 nmol/L
SGC-7901 [14] = assay: Downregulation of Axl protein expression in human SGC-7901 cells at 15 to 45 nmol/L measured after 48 hrs by Western blot analysis; assay type: functional, cell-based; settings: dose 15-45 nmol/L
SGC-7901 [15] = assay: Inhibition of colony formation in human SGC-7901 cells measured after 7 days; assay type: functional, cell-based; settings: dose 6-30 nmol/L, time 7.0 day, DDE = dose-dependent effect
MGC-803 [16] = assay: Induction of cell cycle arrest in human MGC-803 cells assessed as increase in G2/M phase cells at 45 nmol/L measured after 24 hrs by flow cytometry (reference value: 19.38%); assay type: functional
SGC-7901 [17] = assay: Induction of cell cycle arrest in human SGC-7901 cells assessed as increase in G2/M phase cells at 45 nmol/L measured after 24 hrs by flow cytometry (reference value: 7.04%); assay type: functional
MGC-803 [18] = assay: Induction of G2/M phase cell cycle arrest in human MGC-803 cells assessed as decrease in cyclin A1 expression at 15 to 45 nmol/L measured after 48 hrs by Western blot analysis; assay type: functional, cell-based; settings: dose 15-45 nmol/L
MGC-803 [19] = assay: Induction of G2/M phase cell cycle arrest in human MGC-803 cells assessed as decrease in cyclin B1 expression at 15 to 45 nmol/L measured after 48 hrs by Western blot analysis; assay type: functional, cell-based; settings: dose 15-45 nmol/L
MGC-803 [20] = assay: Induction of G2/M phase cell cycle arrest in human MGC-803 cells assessed as decrease in p-cdc2 (T161) expression at 15 to 45 nmol/L measured after 48 hrs by Western blot analysis; assay type: functional, cell-based; settings: dose 15-45 nmol/L
[21] = Induction of cell apoptosis in human SGC-7901 cells assessed as increase in apoptotic cells at 45 nmol/L measured after 48 hrs by Annexin V/PI staining based flow cytometric analysis (reference value: 9.28%); assay type: functional
SGC-7901 [22] = assay: Induction of apoptosis in human SGC-7901 cells assessed as decrease in c-IAP1 protein expression measured after 48 hrs by Western blot analysis; assay type: functional, cell-based; settings: dose 15-45 nmol/L, DDE = dose-dependent effect
MGC-803 [23] = assay: Induction of apoptosis in human MGC-803 cells assessed as decrease in Mcl-1 protein expression measured after 48 hrs by Western blot analysis; assay type: functional, cell-based; settings: dose 15-45 nmol/L, DDE = dose-dependent effect
MGC-803 [24] = assay: Induction of apoptosis in human MGC-803 cells assessed as increase in cleaved caspase 9 expression at 15 to 45 nmol/L measured after 48 hrs by Western blot analysis; assay type: functional, cell-based; settings: dose 15-45 nmol/L
SGC-7901 [25] = assay: Induction of apoptosis in human SGC-7901 cells assessed as increase in cleaved caspase 9 expression at 15 to 45 nmol/L measured after 48 hrs by Western blot analysis; assay type: functional, cell-based; settings: dose 15-45 nmol/L
MGC-803 [26] = assay: Induction of morphological changes in human MGC-803 cells assessed as change in concentration of nuclei at 15 to 45 nmol/L measured after 48 hrs by DAPI staining based microscopic analysis; assay type: functional, cell-based; settings: dose 15-45 nmol/L
SGC-7901 [27] = assay: Induction of morphological changes in human SGC-7901 cells assessed as change in concentration of nuclei at 15 to 45 nmol/L measured after 48 hrs by DAPI staining based microscopic analysis; assay type: functional, cell-based; settings: dose 15-45 nmol/L

Question: With `C/C=C/C(=O)N(Cc1ccc(OC)c(O)c1)c1cc(OC)c(OC)c(OC)c1` as the compound, how does the pIC50 (HCT-116) read?
Answer: The pIC50 was 7.26.

Question: And the pIC50 (DU-145)?
Answer: Its pIC50 is 7.09.

Question: What about the pIC50 (PC-3) of the same compound?
Answer: Its pIC50 is 7.26.

Question: What about the pIC50 (A549) of the same compound?
Answer: Its pIC50 is 7.23.

Question: And the pIC50 (MCF7)?
Answer: The pIC50 was 7.17.

Question: What about the pIC50 (TE-1) of the same compound?
Answer: Its pIC50 is 7.03.

Question: What about the pIC50 (SMMC-7721) of the same compound?
Answer: The pIC50 was 7.37.

Question: What about the Activity (MGC-803 [1]) of the same compound?
Answer: The Activity was “Dde”.

Question: What about the Activity (SGC-7901 [2]) of the same compound?
Answer: The Activity was “Dde”.

Question: What about the Activity (GES1) of the same compound?
Answer: Its Activity is “Non-Toxic”.

Question: And the IC50 at 48 h [3]?
Answer: Its IC50 at 48 h is 0.768 µM.

Question: What about the IC50 at 48 h [4] of the same compound?
Answer: The IC50 at 48 h was 48.5 µM.

Question: What about the pIC50 [5] of the same compound?
Answer: The pIC50 was 6.04.

Question: What about the inhibition (Sus scrofa) of the same compound?
Answer: The inhibition was “Dde”.

Question: And the Activity [6]?
Answer: Its Activity is “Dde”.

Question: What about the Activity [7] of the same compound?
Answer: The Activity was “Dde”.

Question: What about the Activity (Tubulin (Homo sapiens) [8]) of the same compound?
Answer: The Activity was “Dde”.

Question: What about the Activity (Tubulin (Homo sapiens) [9]) of the same compound?
Answer: Its Activity is “Dde”.

Question: What about the Activity (MGC-803 [10]) of the same compound?
Answer: Its Activity is “Dde”.

Question: And the Activity (SGC-7901 [11])?
Answer: The Activity was “Dde”.

Question: What about the Activity (SGC-7901 [12]) of the same compound?
Answer: Its Activity is “Dde”.

Question: And the Activity (MGC-803 [13])?
Answer: Its Activity is “Active”.

Question: What about the Activity (SGC-7901 [14]) of the same compound?
Answer: Its Activity is “Active”.

Question: And the inhibition (SGC-7901 [15])?
Answer: The inhibition was “Dde”.

Question: What about the Activity (MGC-803 [16]) of the same compound?
Answer: Its Activity is 76.97%.

Question: What about the Activity (SGC-7901 [17]) of the same compound?
Answer: Its Activity is 80.89%.

Question: What about the Activity (MGC-803 [18]) of the same compound?
Answer: Its Activity is “Active”.

Question: What about the Activity (MGC-803 [19]) of the same compound?
Answer: Its Activity is “Active”.

Question: And the Activity (MGC-803 [20])?
Answer: The Activity was “Active”.

Question: And the Activity [21]?
Answer: The Activity was 63.51%.

Question: And the Activity (SGC-7901 [22])?
Answer: Its Activity is “Dde”.

Question: And the Activity (MGC-803 [23])?
Answer: Its Activity is “Dde”.

Question: And the Activity (MGC-803 [24])?
Answer: The Activity was “Active”.

Question: And the Activity (SGC-7901 [25])?
Answer: The Activity was “Active”.

Question: And the Activity (MGC-803 [26])?
Answer: The Activity was “Active”.

Question: What about the Activity (SGC-7901 [27]) of the same compound?
Answer: Its Activity is “Active”.
